Key:
[1] = system: H. pylori ATCC 700392; test: anti-Helicobacter pylori activity, microwell dilution method with MTT; format: cell-based; details: concentration required for 100% inhibition; H. pylori ATCC 700392; ND = not detected
Procedure: The anti-Helicobacter pylori activity of the PF and NPF as well as the isolated compounds was evaluated against H. pylori ATCC 700392 (type strain, obtained from the American Type Culture Collection unit (ATCC), using microwell dilution method and clarithromycin as standard drug[37]. The detailed procedures were described in the supplementary file.
The anti-Helicobacter pylori activity of the PF and NPF as well as the isolated compounds was evaluated against H. pylori ATCC 700392 (a type strain, obtained from the American Type Culture Collection unit (ATCC), using microwell dilution method and clarithromycin as standard drug ^1. The tested samples were prepared in dimethyl sulfoxide and successive ten twofold dilutions (125- 0.24 µg/mL) were carried out in a 96-well plate. Each microplate well included forty μL of Brain Heart Infusion growth medium and 10% fetal bovine serum (FBS), ten μL of inoculum and fifty μL of the tested sample. The plates were incubated for 3 days, in 5% oxygen, 10% carbon dioxide, 85 % nitrogen atmosphere at 37°C. Forty μL of 3- (4, 5-dimethyl-thiazol-2-yl)- 2,5-diphenyl-tetrazolium bromide (MTT) at a final concentration of 0.5 mg/mL freshly prepared in H2O was added to each well and incubated for 30 min. The bacteria were biologically active when change to purple color was observed ^1. While no change in MTT color indicated inhibition. Solvent control (DMSO) and the standard antibiotic (clarithromycin) were used as negative and positive controls, respectively. The H. pylori inhibition % was calculated using the given formula:
% Inhibition = Abs control – Abs sample × 100 /Abs control.

[2] = molecular target: T1, ovine COX-1 (Ovis aries, UniProt P05979); test: COX-1 inhibitory activity, colourimetric COX inhibitor screening assay kit; format: biochemical; details: ovine COX-1; read-out: IC50 (COX-1)
T1 construct: purchased
Procedure: (§1) The inhibitory COX activity was assayed colourimetrically by examining the inhibition of the ovine COX-1 and human recombinant COX-2 enzymes as described by George et al.[38], using a COX inhibitor screening assay kit. The detailed procedures were described in the supplementary file.
(§2) The inhibitory COX activity was assayed colourimetrically by examining the inhibition of the ovine COX-1 and human recombinant COX-2 enzymes as described by George et al. ^2, using a COX inhibitory screening assay kit. This assay determines the COX peroxidase activity by monitoring the appearance of N,N,N',N'-tetramethyl-p-phenylenediamine (TMPD). Assay buffer (150 μL 0.1 M Tris–HCl pH 8.0), 10 μL heme and 10μL enzyme (COX-1 or COX-2) were added in each well. Ten μL of each tested sample concentration was added to each well and incubated for 15 minutes at 37°C. After incubation, 20 μL of TMPD was added to each well. For initiating the reaction, 10 μL 10 mM arachidonic acid was added and the plates were further incubated for another 2 minutes at 37°C. For terminating the reaction, 50 μL 1 N HCl and saturated stannous chloride were added.
(§3) Reaction mixture containing assay buffer and heme acted as the blank and a mixture with either COX-1 or COX-2 assay buffer and heme acted as the 100% initial activity (IA). […] The absorbances of oxidized TMPD (blue colour) were read in ELISA plate reader at 590 nm. The % inhibition was calculated using the following formula:
(§4) COX % Inhibition= [(100%IA−Inhibitor)/ 100% IA x 100]. Where, IA: 100% initial activity.
(§5) The concentration at which the tested sample produces 50% inhibition of COX-1 and/or COX-2 (IC50) was determined. The selectivity index (SI) was calculated also as IC50 (COX-1)/ (COX-2).

[3] = molecular target: T2, human recombinant COX-2 (Homo sapiens, UniProt P35354); test: COX-2 inhibitory activity, colourimetric COX inhibitor screening assay kit; format: biochemical; details: for SI (COX-1/COX-2): selectivity index calculated as IC50 (COX-1)/(COX-2)
T2 construct: purchased
T2 sequence (P35354 18-604): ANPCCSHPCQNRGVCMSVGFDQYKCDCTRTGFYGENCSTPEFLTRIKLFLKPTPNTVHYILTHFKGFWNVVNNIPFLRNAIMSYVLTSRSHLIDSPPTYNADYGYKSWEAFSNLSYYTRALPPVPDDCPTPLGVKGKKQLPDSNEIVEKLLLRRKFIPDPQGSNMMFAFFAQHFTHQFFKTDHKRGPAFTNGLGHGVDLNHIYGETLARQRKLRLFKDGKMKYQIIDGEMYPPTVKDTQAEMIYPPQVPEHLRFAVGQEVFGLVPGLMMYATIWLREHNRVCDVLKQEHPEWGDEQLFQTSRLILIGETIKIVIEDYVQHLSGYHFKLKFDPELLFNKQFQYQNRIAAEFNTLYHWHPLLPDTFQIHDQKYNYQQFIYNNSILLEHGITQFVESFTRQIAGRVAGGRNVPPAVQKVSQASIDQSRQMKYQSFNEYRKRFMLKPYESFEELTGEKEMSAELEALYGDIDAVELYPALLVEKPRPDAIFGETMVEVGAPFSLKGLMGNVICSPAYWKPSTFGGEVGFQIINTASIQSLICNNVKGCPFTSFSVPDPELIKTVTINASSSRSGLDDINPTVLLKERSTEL
Procedure: as §1, §2, §3, §4, §5

[4] = system: RAW 264.7 macrophage cell line (NO); test: nitric oxide (NO) inhibitory activity in lipopolysaccharide-stimulated macrophages; format: cell-based, murine; details: Mus musculus, RAW264.7; RAW 264.7 cells, 1 µg/mL lipopolysaccharide
Procedure: The detailed procedures were described in the supplementary file.
The cell was incubated at 37 °C in 5% carbon dioxide. RAW 264.7 cells were seeded onto a 96-well plate (1×10^5 cells/well) and incubated for 24 h. […] Followed by incubation, the cells stimulated with 1µg/mL of lipopolysaccharide for another 24 h. The supernatant was gently transferred to new 96-well plates and used for NO determination. L-N 6 - (1-iminoethyl) lysine hydrochloride), is used as standard drug. The absorbance (Abs) was measured in a microplate reader at 540 nm ^3. The percentage inhibition was calculated using the following formula:
Inhibition (%) = 1-[Control-Test] Control × 100.

T1 sequence (P05979 25-600): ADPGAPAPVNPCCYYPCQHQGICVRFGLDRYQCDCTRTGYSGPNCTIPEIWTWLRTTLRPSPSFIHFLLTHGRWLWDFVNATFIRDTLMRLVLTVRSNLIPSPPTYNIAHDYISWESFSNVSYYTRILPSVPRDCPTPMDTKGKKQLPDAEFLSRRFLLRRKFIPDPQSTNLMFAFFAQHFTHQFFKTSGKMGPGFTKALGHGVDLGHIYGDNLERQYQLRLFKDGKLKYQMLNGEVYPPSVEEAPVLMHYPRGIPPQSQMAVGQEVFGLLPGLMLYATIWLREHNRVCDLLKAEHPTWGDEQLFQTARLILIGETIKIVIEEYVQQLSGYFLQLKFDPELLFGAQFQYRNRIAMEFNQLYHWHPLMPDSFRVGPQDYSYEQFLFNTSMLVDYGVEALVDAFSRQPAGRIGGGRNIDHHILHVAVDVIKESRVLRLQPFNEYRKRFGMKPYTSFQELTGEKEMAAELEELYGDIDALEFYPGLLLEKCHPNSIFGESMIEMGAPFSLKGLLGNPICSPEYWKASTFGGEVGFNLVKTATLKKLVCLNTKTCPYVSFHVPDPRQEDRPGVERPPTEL

SMILES	MIC (H. pylori) [1]	IC50 [2]	IC50 ([3]; human recombinant COX-2)	SI (COX-1/COX-2) [3]	IC50 [4]
CC(C)[C@H]1CC[C@H]2[C@@]1(C)CC[C@@]1(C)[C@@H]3CC[C@H]4C(C)(C)[C@@H](O)CC[C@]4(C)C3=CC[C@]21C [Isoarborinol (N1), isoarborinol]	no H. pylori inhibitory potential	73.3 ± 1 µM	51.8 ± 2.1 µM	1.42	44.3 ± 1.7 µM
CC[C@H](/C=C/[C@@H](C)[C@H]1CC[C@H]2[C@@H]3CC=C4C[C@@H](O)CC[C@]4(C)[C@H]3CC[C@]12C)C(C)C [Stigmasterol (N2), stigmasterol]	no H. pylori inhibitory potential			1.33	

Reference: PMC9259591, “Irigenin, a novel lead from Iris confusa for management of Helicobacter pylori infection with selective COX-2 and HpIMPDH inhibitory potential” (Scientific Reports, 2022)
